# Reference: US20200237871A1, “METHODS FOR MITIGATING LIVER INJURY AND PROMOTING LIVER HYPERTROPHY, REGENERATION AND CELL ENGRAFTMENT IN CONJUNCTION WITH RADIATION AND/OR RADIOMIMETIC TREATMENTS” (Janssen Pharmaceutica NV, priority 2019, published 2020)
# Assays:
# C57BL6 male mice = test: Volume of untreated (non-irradiated) caudate lobe after partial hepatic irradiation (Example 1); assay type: in vivo, mouse; conditions: 50 Gy to median lobe; 300 μg/kg sc 10 minutes after irradiation; one month after HIR; n=4 per group; p-value <0.00932
# Method: 8-12-week-old C57BL6 male mice were housed in the Institute for Animal Studies at Albert Einstein College of Medicine and fed regular chow. Animals were weighed in the beginning of the experiment and before tissue collection. All experiments were performed to according to protocols approved by Institutional Animal Care and Use Committee at Albert Einstein College of Medicine.
# Image-guided external beam irradiation was performed using a small animal radiation research platform (SARRP, Xstrahl Inc., Suwanee, Ga.). Mice were given gastrografin contrast through gavage to improve visualization of the gastrointestinal (GI) tract. After approximately 2 minutes, mice were positioned on a tubular couch and anesthetized with ˜2% Isofluorane (Isothesia, USP) in 2 L/min pure oxygen. A cone-beam computed tomography (CBCT) scan was acquired and a treatment plan irradiating the median lobe and right lobe was generated using the MuriPlan software. To minimize toxicity, irradiation was performed using 2 parallel opposed fields. […]
# With fixed physiologic organ size, non-irradiated liver undergoes hypertrophy in effort to compensate for the irradiated atrophic lobe. The volume of the caudate lobe was measured as a non-irradiated lobe in this experiment.
# Hemophilia A mice = test: Survival after tail bleed challenge (Example 6); assay type: in vivo, mouse; conditions: HIR+LSECs+drug, control Hemophilia A mice 100% died within 5 days
# Text: 8-16-week-old male C57/BL6 mice, 8-16-week-old female and male B6129SF2/J mice (donor for isolating LSECs) and 8-16-week-old female and male Hemophilia mice (F^8tm1Kaz) mice were used in this study. Mice were housed in groups of up to 5 in micro-isolator cages on stainless steel racks (Allentown, Inc., Allentown, N.J.) with a total floor space of 500 cm^2. The cages utilized an external water bottle and a dual feeder rack (Fisher Scientific, Hampton, N.H.). These cages were stored in the storage rack which provided temperature, humidity, and ventilation control to each individual cage (Allentown, Inc.). Bed-o'Cobs ⅛″ (Fisher Scientific) were used as bedding material in each cage.
# The methods were identical to Experiment 5 as described above; including the preparation of test articles (solutions of RWJ-800088 and AdHGF), isolation and transplant of LSECs, and Hepatic irradiation.
# The livers of mice were irradiated at 50 Gy by using an X-ray irradiator (SARRP). At 24 hours post-irradiation, the LSECs (1×10^6 cells/mouse) were injected to the mouse through tail vein. An incision was made in the tail from each mouse at day 60 after hepatic irradiation (HIR) and subjected to the bleeding test.
# RWJ-800088 (300 μg/kg) was administrated subcutaneously at 10 min after LSEC transplantation. AdHGF at 1×10^9 PFU/mouse was administrated intraperitoneally at 24 hours after LSEC transplantation. […]
substance,measurement,setting,value
methoxypolyethyleneglycol20000-propionyl-L-Isoleucyl-L-Glutamyl-Glycyl-L-Prolyl-L-Threonyl-L-Leucyl-L-Arginyl-L-Glutaminyl-L-2-Naphthylalanyl-L-Leucyl-L-Alanyl-L-Alanyl-L-Arginyl-Sarcosyl-Ne-(methoxypolyethyleneglycol20000-propionyl-L-Isoleucyl-L-Glutamyl-Glycyl-L-Prolyl-L-Threonyl-L-Leucyl-L-Arginyl-L-Glutaminyl-L-2-Naphthyl alanyl-L-Leucyl-L-Alanyl-L-Alanyl-L-Arginyl-Sarcosyl-)-Lysinamide [RWJ-800088],"non-irradiated caudate lobe size, HIR+TPOm vs. HIR+saline",C57BL6 male mice,significant increase
same,survival 30 days post tail bleed challenge,Hemophilia A mice,100%
